Key:
Type in all cases: in vivo
[1] = test system: barnyardgrass (Echinochloa crus-galli L.): ECHCG; test: Test Example 1 pre-emergence herbicidal activity, ECHCG; settings: Rate 63 g a.i./ha, visually observed 20th to 23rd day after application
Outline: (§1)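 Seeds go into pots of upland field soil; one day on, the diluted formulation (500 L/ha water) is sprayed pre-emergence. Effects are scored visually 20 to 23 days post-application as 0–100% growth control.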

[2] = test system: crabgrass (Digitaria sanguinalis L.): DIGSA; test: Test Example 1 pre-emergence herbicidal activity, DIGSA; settings: Rate 63 g a.i./ha, visually observed 20th to 23rd day after application
Outline: as §1

[3] = test system: green foxtail (Setaria viridis L.): SETVI; test: Test Example 1 pre-emergence herbicidal activity, SETVI; settings: Rate 63 g a.i./ha, visually observed 20th to 23rd day after application
Outline: as §1

[4] = test system: redroot pigweed (Amaranthus retroflexus L.): AMARE; test: Test Example 1 pre-emergence herbicidal activity, AMARE; settings: Rate 63 g a.i./ha, visually observed 20th to 23rd day after application
Outline: as §1

[5] = test system: prickly sida (Sida spinosa L.): SEDSP; test: Test Example 1 pre-emergence herbicidal activity, SIDSP; settings: Rate 63 g a.i./ha, visually observed 20th to 23rd day after application
Outline: as §1

[6] = test system: velvetleaf (Abutilon theophrasti): ABUTH; test: Test Example 1 pre-emergence herbicidal activity, ABUTH; settings: Rate 63 g a.i./ha, visually observed 20th to 23rd day after application
Outline: as §1

[7] = test system: rice (Oryza sativa L.): ORYSA; test: Test Example 1 pre-emergence herbicidal activity, ORYSA; settings: Rate 63 g a.i./ha, visually observed 20th to 23rd day after application
Outline: as §1

[8] = test system: wheat (Triticum aestivum L.): TRZAX; test: Test Example 1 pre-emergence herbicidal activity, TRZAX; settings: Rate 63 g a.i./ha, visually observed 20th to 23rd day after application
Outline: as §1

[9] = test system: corn (Zea mays L.): ZEAMX; test: Test Example 1 pre-emergence herbicidal activity, ZEAMX; settings: Rate 63 g a.i./ha, visually observed 20th to 23rd day after application
Outline: as §1

[10] = test system: soybean (Glycine max Merr.): GLXMA; test: Test Example 1 pre-emergence herbicidal activity, GLXMA; settings: Rate 63 g a.i./ha, visually observed 20th to 23rd day after application
Outline: as §1

[11] = test system: barnyardgrass (Echinochloa crus-galli L.), ECHCG; test: Test Example 2 post-emergence (foliage treatment) herbicidal activity, ECHCG; settings: 63 g a.i./ha
Outline: (§2)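 Sow in upland soil; grow to leaf stage (barnyardgrass 1.1-2.1, crabgrass 1.0-2.0, pigweed 0.1-1.5, rice 1.0-2); spray foliage at a fixed active ingredient rate in 500 L/ha water with 0.1% (v/v) spreader; rate growth control visually at 20-23 days on a 0-100% scale.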

[12] = test system: crabgrass (Digitaria sanguinalis L.), DIGSA; test: Test Example 2 post-emergence (foliage treatment) herbicidal activity, DIGSA; settings: 63 g a.i./ha
Outline: as §2

[13] = test system: redroot pigweed (Amaranthus retroflexus L.), AMARE; test: Test Example 2 post-emergence (foliage treatment) herbicidal activity, AMARE; settings: 63 g a.i./ha
Outline: as §2

[14] = test system: prickly sida (Sida spinosa L.), SIDSP; test: Test Example 2 post-emergence (foliage treatment) herbicidal activity, SIDSP; settings: 63 g a.i./ha
Outline: (§3)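 Foliar spray of formulated compound (500 L/ha dilution water, 0.1% v/v spreader) onto young potted plants at defined leaf stages. Scored 0-100% by visual inspection 20-23 d post-spray.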

[15] = test system: velvetleaf (Abutilon theophrasti), ABUTH; test: Test Example 2 post-emergence (foliage treatment) herbicidal activity, ABUTH; settings: 63 g a.i./ha
Outline: as §3

[16] = test system: rice (Oryza sativa L.), ORYSA; test: Test Example 2 post-emergence (foliage treatment) herbicidal activity, ORYSA; settings: 63 g a.i./ha
Outline: as §2

[17] = test system: wheat (Triticum aestivum L.), TRZAX; test: Test Example 2 post-emergence (foliage treatment) herbicidal activity, TRZAX; settings: 63 g a.i./ha
Outline: as §3

[18] = test system: corn (Zea mays L.), ZEAMX; test: Test Example 2 post-emergence (foliage treatment) herbicidal activity, ZEAMX; settings: 63 g a.i./ha
Outline: as §3

[19] = test system: soybean (Glycine max Merr.), GLXMA; test: Test Example 2 post-emergence (foliage treatment) herbicidal activity, GLXMA; settings: 63 g a.i./ha
Outline: as §3

[20] = test system: barnyardgrass (Echinochiloa oryzicola: ECHOR); test: Test Example 3 water application herbicidal activity (paddy), ECHOR; settings: 63 g a.i./ha, water application under submerged condition at 0.5 leaf stage, visually observed 14th day after application; 0 = untreated control, 100 = complete kill
Excerpt: (§4) Paddy field soil was put into a 1/1,000,000 ha pot and seeds of barnyardgrass (Echinochiloa oryzicola: ECHOR) and japanese bulrush (Scirpus juncoides: SCPJO) were sown and slightly covered with soil. Then the pot was left to stand still in a greenhouse in a state where the depth of flooding water was from 0.5 to 1 cm, and one day later, tubers of japanese ribbon wapato (Sagittaria pygmaea: SA GPY) were planted. Thereafter, the depth of flooding water was maintained at a level of from 3 to 4 cm, and when barnyardgrass and japanese bulrush reached a 0.5 leaf stage, an aqueous diluted solution of a wettable powder or emulsifiable concentrate having the compound of the present invention formulated in accordance with a usual formulation method, was uniformly applied under submerged condition by a pipette so that the dose of the active ingredient would be at a predetermined level. On the other hand, paddy filed soil was put into a 1/1,000,000 ha pot and puddled and leveled, and the depth of flooding water was from 3 to 4 cm. One day later, rice (Oryza sativa L.: ORYSA) of 2 leaf stage was transplanted in a depth of 3 cm. On the 4th day after the transplantation, the compound of the present invention was applied in the same manner as described above. On the 14th day after the application of the herbicide, the growth of barnyardgrass, japanese burlush and japanese ribbon wapato was visually observed and on the 21st day after the application of the herbicide, the growth of rice was visually observed, and the herbicidal effects were evaluated by growth controlling degrees (%) ranging from 0 (equivalent to the untreated control) to 100 (complete kill), whereby the results shown in Table 6, were obtained. Compound Nos. in Table 6 correspond to Compound Nos. in Table 1 and 2 given hereinbefore.

[21] = test system: japanese bulrush (Scirpus juncoides: SCPJO); test: Test Example 3 water application herbicidal activity (paddy), SCPJO; settings: 63 g a.i./ha, water application under submerged condition at 0.5 leaf stage, visually observed 14th day after application; 0 = untreated control, 100 = complete kill
Excerpt: as §4

[22] = test system: japanese ribbon wapato (Sagittaria pygmaea: SA GPY); test: Test Example 3 water application herbicidal activity (paddy), SAGPY; settings: 63 g a.i./ha, water application under submerged condition, tubers planted, visually observed 14th day after application; 0 = untreated control, 100 = complete kill
Excerpt: as §4

[23] = test system: green foxtail (Setaria viridis L.), SETVI; test: Test Example 2 post-emergence (foliage treatment) herbicidal activity, SETVI; settings: 63 g a.i./ha
Outline: as §3

CCCOC(=O)Nc1c(OC)c(Cl)cc(F)c1-c1nn(C)c(OC(F)F)c1Cl [Compound 1-72]
Pre-emergence Herbicidal Activity ECHCG (growth controlling degree) [1]: 98%
Pre-emergence Herbicidal Activity DIGSP (growth controlling degree) [2]: 100%
Pre-emergence Herbicidal Activity SETVI (growth controlling degree) [3]: 100%
Pre-emergence Herbicidal Activity AMARE (growth controlling degree) [4]: 100%
Pre-emergence Herbicidal Activity SIDSP (growth controlling degree) [5]: 100%
Pre-emergence Herbicidal Activity ABUTH (growth controlling degree) [6]: 100%
Pre-emergence Herbicidal Activity ORYSA (growth controlling degree) [7]: 40%
Pre-emergence Herbicidal Activity TRZAX (growth controlling degree) [8]: 40%
Pre-emergence Herbicidal Activity ZEAMX (growth controlling degree) [9]: 10%
Pre-emergence Herbicidal Activity GLXMA (growth controlling degree) [10]: 0%
growth controlling degree, ECHCO [11]: 80%
growth controlling degree, DIGSP [12]: 80%
growth controlling degree, AMARE [13]: 100%
growth controlling degree, SIDSP [14]: 100%
growth controlling degree, ABUTH [15]: 100%
growth controlling degree, ORYSA [16]: 60%
growth controlling degree, TRZAX [17]: 20%
growth controlling degree, ZEAMX [18]: 40%
growth controlling degree, GLXMA [19]: 70%
growth controlling degrees (%) ECHOR [20]: 100%
growth controlling degrees (%) SCPJO [21]: 60%
growth controlling degrees (%) SAGPY [22]: 100%

COc1c(Cl)cc(F)c(-c2nn(C)c(OC(F)F)c2Cl)c1NC(=O)Oc1ccccc1 [Compound 1-67]
Pre-emergence Herbicidal Activity ECHCG (growth controlling degree) [1]: 50%
Pre-emergence Herbicidal Activity DIGSP (growth controlling degree) [2]: 100%
Pre-emergence Herbicidal Activity SETVI (growth controlling degree) [3]: 100%
Pre-emergence Herbicidal Activity AMARE (growth controlling degree) [4]: 100%
Pre-emergence Herbicidal Activity SIDSP (growth controlling degree) [5]: 80%
Pre-emergence Herbicidal Activity ABUTH (growth controlling degree) [6]: 70%
Pre-emergence Herbicidal Activity ORYSA (growth controlling degree) [7]: 40%
Pre-emergence Herbicidal Activity TRZAX (growth controlling degree) [8]: 10%
Pre-emergence Herbicidal Activity ZEAMX (growth controlling degree) [9]: 0%
Pre-emergence Herbicidal Activity GLXMA (growth controlling degree) [10]: 0%
growth controlling degree, ECHCO [11]: 70%
growth controlling degree, DIGSP [12]: 70%
growth controlling degree, AMARE [13]: 100%
growth controlling degree, SIDSP [14]: 100%
growth controlling degree, ABUTH [15]: 100%
growth controlling degree, ORYSA [16]: 60%
growth controlling degree, TRZAX [17]: 30%
growth controlling degree, ZEAMX [18]: 30%
growth controlling degree, GLXMA [19]: 70%
growth controlling degrees (%) ECHOR [20]: 100%
growth controlling degrees (%) SCPJO [21]: 100%
growth controlling degrees (%) SAGPY [22]: 100%

COc1c(Cl)cc(F)c(-c2nn(C)c(OC(F)F)c2Cl)c1NC(=O)OCCN(C)C [Compound 1-66]
Pre-emergence Herbicidal Activity ECHCG (growth controlling degree) [1]: 0%
Pre-emergence Herbicidal Activity DIGSP (growth controlling degree) [2]: 20%
Pre-emergence Herbicidal Activity SETVI (growth controlling degree) [3]: 10%
Pre-emergence Herbicidal Activity SIDSP (growth controlling degree) [5]: 20%
Pre-emergence Herbicidal Activity ABUTH (growth controlling degree) [6]: 20%
Pre-emergence Herbicidal Activity ORYSA (growth controlling degree) [7]: 0%
Pre-emergence Herbicidal Activity TRZAX (growth controlling degree) [8]: 0%
Pre-emergence Herbicidal Activity ZEAMX (growth controlling degree) [9]: 0%
Pre-emergence Herbicidal Activity GLXMA (growth controlling degree) [10]: 0%
growth controlling degree, ECHCO [11]: 20%
growth controlling degree, DIGSP [12]: 40%
growth controlling degree, SETVI [23]: 60%
growth controlling degree, SIDSP [14]: 100%
growth controlling degree, ABUTH [15]: 100%
growth controlling degree, ORYSA [16]: 50%
growth controlling degree, TRZAX [17]: 20%
growth controlling degree, ZEAMX [18]: 40%
growth controlling degree, GLXMA [19]: 60%
growth controlling degrees (%) ECHOR [20]: 90%
growth controlling degrees (%) SCPJO [21]: 30%
growth controlling degrees (%) SAGPY [22]: 0%

COc1c(Cl)cc(F)c(-c2nn(C)c(OC(F)F)c2Cl)c1NC(=O)OCCCl [Compound 1-68]
Pre-emergence Herbicidal Activity ECHCG (growth controlling degree) [1]: 95%
Pre-emergence Herbicidal Activity DIGSP (growth controlling degree) [2]: 100%
Pre-emergence Herbicidal Activity SETVI (growth controlling degree) [3]: 100%
Pre-emergence Herbicidal Activity AMARE (growth controlling degree) [4]: 100%
Pre-emergence Herbicidal Activity SIDSP (growth controlling degree) [5]: 100%
Pre-emergence Herbicidal Activity ABUTH (growth controlling degree) [6]: 100%
Pre-emergence Herbicidal Activity ORYSA (growth controlling degree) [7]: 40%
Pre-emergence Herbicidal Activity TRZAX (growth controlling degree) [8]: 40%
Pre-emergence Herbicidal Activity ZEAMX (growth controlling degree) [9]: 10%
Pre-emergence Herbicidal Activity GLXMA (growth controlling degree) [10]: 0%
growth controlling degree, ECHCO [11]: 70%
growth controlling degree, SETVI [23]: 100%
growth controlling degree, SIDSP [14]: 100%
growth controlling degree, ABUTH [15]: 100%
growth controlling degree, ORYSA [16]: 60%
growth controlling degree, TRZAX [17]: 20%
growth controlling degree, ZEAMX [18]: 50%
growth controlling degree, GLXMA [19]: 60%
growth controlling degrees (%) ECHOR [20]: 100%
growth controlling degrees (%) SCPJO [21]: 95%
growth controlling degrees (%) SAGPY [22]: 80%

COc1c(Cl)cc(F)c(-c2nn(C)c(OC(F)F)c2Cl)c1NC(=O)OCc1cccnc1 [Compound 1-70]
Pre-emergence Herbicidal Activity ECHCG (growth controlling degree) [1]: 90%
Pre-emergence Herbicidal Activity DIGSP (growth controlling degree) [2]: 80%
Pre-emergence Herbicidal Activity SETVI (growth controlling degree) [3]: 70%
Pre-emergence Herbicidal Activity AMARE (growth controlling degree) [4]: 100%
Pre-emergence Herbicidal Activity SIDSP (growth controlling degree) [5]: 100%
Pre-emergence Herbicidal Activity ABUTH (growth controlling degree) [6]: 100%
Pre-emergence Herbicidal Activity ORYSA (growth controlling degree) [7]: 40%
Pre-emergence Herbicidal Activity TRZAX (growth controlling degree) [8]: 0%
Pre-emergence Herbicidal Activity ZEAMX (growth controlling degree) [9]: 0%
Pre-emergence Herbicidal Activity GLXMA (growth controlling degree) [10]: 0%
growth controlling degree, ECHCO [11]: 80%
growth controlling degree, DIGSP [12]: 60%
growth controlling degree, AMARE [13]: 100%
growth controlling degree, SIDSP [14]: 100%
growth controlling degree, ABUTH [15]: 100%
growth controlling degree, ORYSA [16]: 95%
growth controlling degree, TRZAX [17]: 30%
growth controlling degree, ZEAMX [18]: 80%
growth controlling degree, GLXMA [19]: 80%
growth controlling degrees (%) ECHOR [20]: 100%
growth controlling degrees (%) SCPJO [21]: 80%
growth controlling degrees (%) SAGPY [22]: 100%

— patent publication US20050245399A1, “Pyrazole derivatives as herbicidal compositions containing them” (ISHIHARA SANGYO KAISHA, LTD., priority 2004, published 2005)
